Reference: patent US9643971B2 (GALLEON PHARMACEUTICALS, INC., priority 2013, dated 2017)
Counter-ions that a name gives are not always drawn.

Assays:
anesthetized rat = assay: Anesthetized rat spirometry screening assay; assay type: in vivo
Outline: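 Rats under urethane (1.5 g/kg i.v., after isoflurane induction) with femoral and tracheal cannulas; compounds given as i.v. bolus at 0.1 and 0.3 mg/kg with formulation-matched vehicle. RR, VT and minute volume from pneumotachometer airflow, in 30 s bins over 6 min post-dose; arterial blood gases taken pre- and 6 min post-dose.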

[1] = In vitro metabolic stability in rat liver microsomes (RLM)
[2] = In vitro metabolic stability in human liver microsomes (HLM); conditions: for half-life at 5 μM: both, human
[3] = Pharmacokinetic and oral bioavailability in the rat; assay type: in vivo, Sprague-Dawley rats; conditions: Sprague-Dawley, plasma, oral gavage 10-30 mg/kg vs intravenous bolus 2-5 mg/kg
Procedure: Sprague-Dawley rats (200-300 g) were fed a standard laboratory rodent diet and housed in individual cages on a 12-hour light and 12-hour dark cycle with room temperature maintained at 22±3° C. and relative humidity at 50±20%. Rats were fasted overnight before dosing, with food returned after the 6 hour blood samples were obtained. Bedding was removed until after the 6 hour blood samples were obtained. Water was provided ad libitum throughout the study.
Dosing solution of test compound was prepared in desired oral formulation for oral administration via gavage needle at 10-30 mg/kg (10 mL/kg) to three or four rats. […]
Plasma samples (incurred study samples, calibration standards, quality controls) were normally prepared as follows. […] Calibration standards were typically prepared in the range of 2 ng/ml to 10 μg/mL for quantitation. […]
All pharmacokinetic parameters were determined based on a non-compartmental approach using WinNonlin software (Pharsight, Version 5.1). The terminal elimination half-life (t1/2) was calculated as ln2/λz using the slope (λz) from linear regression analysis of the terminal phase of the plasma concentration-time curve on a semi-log scale. […] The systemic plasma clearance (CLp) was calculated as intravenous dose divided by AUCinf. The volume of distribution at steady state (Vss) was determined as the product of CLp and MRT. […]

in vitro = conditions: male, rat, microsomes
[4] = 2 minute AUC of minute volume increase vs. comparator N-[2,6-di-(n-propylamino)-[1,3]pyrimidin-4-yl]-N,O-dimethyl-hydroxylamine

## CCCNc1nc(NCCC(F)(F)F)nc2c(NCCC)nc(NC)nc12 [Compound 39a, hydrochloride]
Anesthetized rat; [4]
  AUC MV Inc (2 min) (ratio vs. std*): 0.71 ratio vs. std
[1]; male, rat, microsomes
  half-life at 5 μM: 2.57 h
[2]; microsomes
  half-life at 5 μM: 3.97 h

## CCCNc1nc(N2CCOCC2)nc2c(NCCC)nc(NC)nc12 [Compound 41a, N^2-Methyl-N^4N^8-di-n-propyl-6-(morpholin-4-yl)-pyrimido[5,4-d]pyrimidine-2,4,8-triamine]
Anesthetized rat; rat, in vivo
  AUC MV Inc (2 min) (ratio vs. std*): 0.36 ratio vs. std
  VE Peak (% Inc.): 57 % Inc.
[1]; rat liver microsomes, 5 μM compound, NADPH, 37° C.
  RLM T½: 1.67 h
[2]; human liver microsomes, 5 μM compound, NADPH, 37° C.
  HLM T½: 3.12 h

## CCCNc1nc(NC)nc2c(NCCC)nc(NC)nc12.Cl [Compound 4a, N^2,N^6-Dimethyl-N^4,N^8-di-n-propyl-pyrimido[5,4-d]pyrimidine-2,4,6,8-tetraamine hydrochloride]
Anesthetized rat; [4]
  AUC MV Inc (2 min) (ratio vs. std*): 1.28 ratio vs. std
Anesthetized rat; anesthetized rat, i.v. bolus
  duration of increase in minute ventilation: approximately 2 minutes
  effect on blood pressure: negligible effects
  effect on minute ventilation above baseline values: increase
  effect on pulse rate: negligible effects
  effect on respiratory rate: stimulatory effects on respiratory rate primarily
Anesthetized rat; based on a two-minute average
  dose dependence of effect on minute volume: dose-dependent effect
Anesthetized rat; minute volume, two-minute average
  effect compared to a reference compound as measured by area-under-curve: greater effect
[3]
  bioavailability: 38%
other
  melting point: 229 to 232 °C
In vitro
  half-life at 5 μM: 4.55 h
[2]; liver microsomes
  half-life at 5 μM: 6.85 h
